Test results as given in US9844595B2, “Composition comprising a complex of (+)-catechin and amino acid for the treatment and prevention of cancer” (VALORE, priority 2013, dated 2017).
Read-outs that look alike come from different tables or passages of the source.

Assays:
[1] = system: collagen of rat skin; experiment: Total incorporation and incorporation into collagen of 3H-proline in the skin; type: in vivo, Wistar rats; details: 100 mg/kg by gavage, vs control subgroup
Protocol: To do this, a study was carried out in vivo on a batch of 24 female Wistar rats weighing from 95 to 115 g, divided into two groups C and D, each of 12 rats. For each group, the radioactive 3H-hydroxyproline, the specific activity of which is 13.6 Ci/10-3 mol, was administered to all the animals by intraperitoneal injection of 3H-proline at a dose, relative to the weight of the individuals, of 1 mCi/kg, which represents an activity in terms of radioactive 3H-proline of 100 μCi/individual.
6 rats of each group received a treatment based on monomeric (+)-catechin by gavage in a proportion of 100 mg/kg for 5 days before sacrifice. […] The group C received monomeric (+)-catechin hydrochlorolysinate, while the group D received monomeric (+)-catechin ascorbolysinate.
In table 8, the level of incorporation is measured by the number of disintegrations of the radioactive 3H-hydroxyproline per minute (dpm) per mg of dry weight. The higher this number, the higher the concentration of 3H-hydroxyproline.
In this comparative example, a group E of 12 Wistar rats weighing from 95 to 115 g, in which radioactive 3H-hydroxyproline, the specific activity of which is 13.6 Ci/10-3 mol, was administered to all the individuals by intraperitoneal injection of 3H-proline at a dose, relative to the weight of the individuals, of 1 mCi/kg, which represents an activity in terms of radioactive 3H-proline of 100 μCi/individual.
6 rats of each group received a treatment based on pure monomeric (+)-catechin by gavage in a proportion of 100 mg/kg for 5 days before sacrifice.

[2] = Solubility in water; type: physicochemical
[3] = Bioavailability after oral administration in human beings (free monomeric (+)-catechin in plasma, LC-MS/MS)
Protocol: (§1) With regard to taking the blood samples from the rats and from the human beings, the blood was collected in tubes internally coated with EDTA and was then centrifuged at 3000 rpm (revolutions per minute) at ambient temperature for 45 min, and then for 15 min at a temperature of 4° C. The plasma was then collected and stored at −70° C. before analysis.
(§2) The analytical technique (LC-MS/MS for Liquid Chromatography coupled to tandem Mass Spectrometry) for measuring the active substance in the blood was based on the method described by Mata-Bilbao et al., published in 2007 in the Journal of Agricultural and Food Chemistry, volume 55, page 8857.
(§3) The free (+)-catechin was extracted from the plasma with a solution of phosphoric acid, EDTA and ascorbic acid and was then purified by SPE (solid phase extraction); in particular, it is an Oasis™ HLB extraction which is analyzed by LC-MS/MS. The quantification was carried out according to a standard calibration procedure with (+/−)-catechin-2,3,4-^13C3 as internal standard (SI).
This complex salt is administered to a group A of 5 healthy volunteers.
This ct parameter makes it possible to calculate, from the data of table 1, the bioavailability of the (+)-catechin expressed in ng h/ml.

[4] = type: in vivo, Wistar rats; details: in a period of one hour following the injection
Text: (§4) Each of the mixtures is then solubilized in water.

[5] = for Δct: vs CP
Protocol: The experimental results described below were obtained on the basis of a study carried out in healthy human beings and in healthy Wistar rats weighing approximately 250 grams.
An acclimation period was observed before beginning the experiments.
The rats received an administration per os of a volume of 5 ml of a solution of active product.
as §1, §2, §3
The procedure is identical with regard to the extraction and the quantification of free quercetin or ECGC in the blood.
With regard to the extraction and quantification of the total (+)-catechin, the procedure is the same as that applied to the free (+)-catechin, with the exception of the fact that an additional step prior to the purification by SPE is carried out.
as §4
Each of the mixtures is solubilized in water.

[6] = free (+)-catechin, 1 g pure monomeric (+)-catechin, group B
[7] = free monomeric (+)-catechin in plasma
[8] = free (+)-catechin, rats, oral, dose equivalent to 25 mg/kg (+)-catechin, 3 Wistar rats
[9] = free (+)-catechin, rats, per os, dose equivalent to 25 mg/kg (+)-catechin, 5 Wistar rats, pulverulent mixture solubilized in water
[10] = total (+)-catechin (free and conjugated), rats, oral, dose equivalent to 25 mg/kg, 3 Wistar rats

Oc1cc(O)c2c(c1)O[C@H](c1ccc(O)c(O)c1)[C@@H](O)C2 [CP, (+)-catechin]
increase in the level of incorporation [1]: +16% | solubility in water compared with the complexed form [2]: 400 times lower | c (max) related back to 0.92 g of pure (+)-catechin [3]: 258 ng/mL | ct related back to 0.92 g of pure (+)-catechin ([3]; equivalent amount of 0.92 g pure (+)-catechin): 0.832 ± 0.15 µg·h/mL | ct related back to 0.920 g of pure (+)-catechin ([3]; equivalent amount of 0.920 g pure (+)-catechin): 49 920 ng min/ml | T (max) [3, 6]: 1.20 h | c (max) [3, 6]: 280 ng/mL | ct (total concentration, area under the curve over six hours) ([3]; free (+)-catechin, 1 g pure monomeric (+)-catechin, group B, listed as pure (+)-catechin): 0.904 ± 0.163 µg·h/mL | T (max) [3, 7]: 1.33 h | c (max) for 1 g of monomeric (+)-catechin ingested as it is [3, 7]: 280 ng | content of free monomeric (+)-catechin eliminated from the blood [4]: ~90% | T (max) [5, 8]: 0.5 h | Δct [5, 8]: 0% | Δct (difference of ct to CP, related back to CP) ([5]; free (+)-catechin, rats, oral, dose equivalent to 100 mg/kg (+)-catechin): 0% | T (max) ([5]; free (+)-catechin, rats, oral, dose equivalent to 100 mg/kg (+)-catechin, 5 Wistar rats): 1 h | T (max) [5, 9]: 1 h | c (max) [5, 9]: 580 ng/mL | ct [5, 9]: 91 935 ng min/ml | Δct ([5]; free (+)-catechin, rats, per os, dose equivalent to 25 mg/kg, 5 Wistar rats): 0% | decrease of the peak content of free monomeric (+)-catechin in the blood ([5]; oral absorption, after two hours): 50% | T (max) [5, 10]: 0.5 h | c (max) [5, 10]: 2200 ng/mL | Δct ([5]; total (+)-catechin, rats, oral, dose equivalent to 25 mg/kg, 3 Wistar rats): 0%
